Our source for the TGI values is PubChem BioAssay (NCI).

Test systems include HCT-15 colon; SR leukemia; SF-268 CNS; SF-295 CNS; SK-OV-3 ovarian; SK-MEL-28 melanoma; MALME-3M melanoma; IGROV1 ovarian; OVCAR-8 ovarian.
What all share (assay): NCI-60 cell line screen, 48 h

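Tested at 5 concentrations; 48 h exposure; 96-well plates; endpoints linearly interpolated, else capped at highest concentration. TGI denotes the concentration required for complete inhibition of growth.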 Bounds are passed on as bounds.

As for `COc1cccc(C=NC23CC4CC(CC(C4)C2)C3)c1`, the TGI in the test with HCT-15 colon, in the test with SR leukemia, with SF-268 CNS, in the test with SF-295 CNS, with SK-OV-3 ovarian and in the test on SK-MEL-28 melanoma was above 100 µM in each case. Further, the TGI with MALME-3M melanoma, with IGROV1 ovarian and with OVCAR-8 ovarian was above 100 µM throughout.

For `CCOC(=N)CC(=O)Nc1ccccc1CC`, the TGI in the test with HCT-15 colon, with SR leukemia, with SF-268 CNS, with SF-295 CNS, in the test with SK-OV-3 ovarian and in the test with SK-MEL-28 melanoma was above 100 µM in each case. Besides, the TGI in the test on MALME-3M melanoma, in the test on IGROV1 ovarian and in the test on OVCAR-8 ovarian was above 100 µM throughout.

As for `Cc1cc(O)c2c(c1)OC1(C)CCC3C(C)(C)CCCC34COC2C14` (centres undefined), the TGI was found to be 30.7 µM in the test on SF-268 CNS; 28.3 µM in the test on SF-295 CNS; 26.3 µM with MALME-3M melanoma; 38.7 µM in the test on IGROV1 ovarian; 30.9 µM in the test on OVCAR-8 ovarian.

Take `CNC(=O)NCCCCC(NC(C)=O)C(=O)NCc1ccccc1` (centres undefined): the TGI with HCT-15 colon, in the test with SF-268 CNS, in the test with SF-295 CNS, in the test on SK-OV-3 ovarian, in the test with SK-MEL-28 melanoma and with MALME-3M melanoma was above 100 µM throughout. Moreover, the TGI with IGROV1 ovarian and with OVCAR-8 ovarian was above 100 µM throughout.

Turning to `O=C(Nc1ccccc1)N1C(c2ccccc2)=N[C@@H](c2ccccc2)[C@@H]1c1ccccc1`, the TGI amounted to 60.4 µM in the test with HCT-15 colon; 40.4 µM with SR leukemia; 49.2 µM in the test on SF-268 CNS; 62.7 µM in the test with SF-295 CNS; 30.6 µM in the test with SK-MEL-28 melanoma; 34.7 µM in the test with MALME-3M melanoma. Also, the results for the TGI in the test with IGROV1 ovarian and in the test on OVCAR-8 ovarian were 53.4 µM and 45.6 µM, respectively.

On to `COc1ccccc1/C=C(\NC(=O)c1ccccc1)c1nc2ccccc2[nH]1`, for which the TGI in the test on HCT-15 colon, in the test on SF-268 CNS, with SK-OV-3 ovarian, in the test with SK-MEL-28 melanoma, with MALME-3M melanoma and with IGROV1 ovarian was above 100 µM throughout. This compound also returned a TGI with OVCAR-8 ovarian above 100 µM.

With `Cc1cccc(C=NC23CC4CC(CC(C4)C2)C3)c1`, the TGI in the test on HCT-15 colon, with SF-268 CNS, in the test with SF-295 CNS, with SK-OV-3 ovarian, in the test on SK-MEL-28 melanoma and in the test on MALME-3M melanoma was above 100 µM in each case. Moreover, the TGI in the test on IGROV1 ovarian and in the test with OVCAR-8 ovarian was above 100 µM each time.

With `C/C(=C\c1ccccc1)C(=O)c1c(C)cc(C)cc1C`, the TGI with HCT-15 colon, in the test on SR leukemia, in the test on SF-268 CNS, in the test with SF-295 CNS, with SK-OV-3 ovarian and in the test with SK-MEL-28 melanoma was above 100 µM in each case. Further, the TGI with MALME-3M melanoma, in the test on IGROV1 ovarian and in the test on OVCAR-8 ovarian was above 100 µM each time.

Regarding `O=C1N=C2N=C(c3ccc(Cl)cc3)N(c3ccc(Cl)cc3)N2Sc2ccccc21`, the TGI in the test with HCT-15 colon, in the test with SF-268 CNS, in the test on SF-295 CNS, in the test on SK-OV-3 ovarian, with SK-MEL-28 melanoma and in the test with MALME-3M melanoma was above 100 µM throughout. Moreover, the TGI in the test on IGROV1 ovarian and with OVCAR-8 ovarian was above 100 µM each time.

For the compound `O=C(C#Cc1ccccc1)NC/C=C/c1ccccc1`, the TGI was above 100 µM in the test on HCT-15 colon; above 100 µM in the test on SR leukemia; above 100 µM in the test on SF-268 CNS; above 100 µM in the test on SF-295 CNS; 56.6 µM with SK-OV-3 ovarian; above 100 µM in the test with SK-MEL-28 melanoma. For the same compound, the TGI with MALME-3M melanoma, with IGROV1 ovarian and with OVCAR-8 ovarian was above 100 µM in each case.

Turning to `C[C@]12CC[C@H](OC(=O)Nc3ccccc3)CC1=CC[C@@H]1C2CC[C@]2(C)/C(=N/OC(=O)Nc3ccccc3)CCC12` (some centres undefined), the TGI in the test with HCT-15 colon is 3.31 µM; with SF-268 CNS, above 100 µM; in the test with SF-295 CNS, above 100 µM; in the test on SK-OV-3 ovarian it was above 100 µM; in the test on IGROV1 ovarian it was above 100 µM; in the test on OVCAR-8 ovarian, above 100 µM.

Turning to `O=C(Cc1nc2ccccc2s1)C(=O)Nc1cccc(C(F)(F)F)c1`, the TGI in the test with HCT-15 colon, in the test with SR leukemia, in the test on SF-268 CNS, in the test with SF-295 CNS, in the test with SK-OV-3 ovarian and in the test with SK-MEL-28 melanoma was above 100 µM throughout. Also, the TGI with MALME-3M melanoma, in the test with IGROV1 ovarian and in the test with OVCAR-8 ovarian was above 100 µM throughout.

In the case of `COC(OC)c1cccnc1C`, the TGI in the test with HCT-15 colon, in the test with SR leukemia, in the test with SF-268 CNS, in the test on SF-295 CNS, in the test with SK-OV-3 ovarian and with SK-MEL-28 melanoma was above 100 µM throughout. For the same compound, the TGI with MALME-3M melanoma, with IGROV1 ovarian and in the test on OVCAR-8 ovarian was above 100 µM throughout.

Regarding `O=C1C(=O)N(c2cc(Cl)ccc2Cl)C(=O)C(=O)C1c1nc2ccccc2s1`, the TGI in the test on HCT-15 colon, in the test on SF-268 CNS, in the test on SF-295 CNS, with SK-OV-3 ovarian, in the test on SK-MEL-28 melanoma and with MALME-3M melanoma was above 100 µM in each case. The TGI in the test with IGROV1 ovarian and in the test with OVCAR-8 ovarian was above 100 µM throughout.

As to `c1ccc(N2CCN(CCN3CCc4c([nH]c5ccccc45)C3c3cccnc3)CC2)cc1` (centres undefined), the TGI was above 100 µM with HCT-15 colon; above 100 µM in the test with SR leukemia; above 100 µM in the test with SF-268 CNS; above 100 µM in the test on SF-295 CNS; 95.2 µM in the test on SK-OV-3 ovarian; above 100 µM with SK-MEL-28 melanoma. The TGI with IGROV1 ovarian and in the test on OVCAR-8 ovarian was above 100 µM in each case.

As for `O=C(O)C1CC2C=CCC(C2)C1` (centres undefined), the TGI with HCT-15 colon, in the test with SR leukemia, with SF-268 CNS, with SF-295 CNS, in the test with SK-OV-3 ovarian and with SK-MEL-28 melanoma was above 100 µM each time. Further, the TGI in the test on MALME-3M melanoma, in the test on IGROV1 ovarian and with OVCAR-8 ovarian was above 100 µM in each case.
